Patent publication US6417399B1, “Amelioration of neurological disorders by the administration of (2R),(3S), and/or (2S),3(S) stereoisomers of valnoctamide” (Yissum Research Development Company of the Hebrew …, priority 1997, dated 2002)
Several values for one entry are separate records, joined by “and”; a condition that tells them apart may be missing. Equal entries are not always repeated.

Tests used:
Format in all cases: in vivo, human
[1] = Pharmacokinetics of VCD stereoisomers in plasma after repeated oral dosing of racemic valnoctamide to epileptic patients; conditions: repeated oral racemic VCD 200 mg tid, last day
Description: (§1) Patients Six epileptic patients (four men and two women aged 23-35 years, with a body weight of 56-85 kg) were studied. All had been receiving a constant carbamazepine dose (800-1200 mg/day) for at least three months. One patient was also receiving phenytoin (250 mg/day) and a second patient phenobarbital (150 mg/day). Each patient received add-on VCD for eight consecutive days at a dosage of 400 mg on day 1 (single dose day), followed by 200 mg three times daily (tid) for seven days. On the last day, only the morning and the midday doses were administered. Blood samples for plasma VCD levels were collected at 0, 0.25, 0.5, 1, 1.5, 2, 3, 4, 5, 6, 8, 10, 12 and 24 hours after the first and the last morning dose. Additional samples were taken at times 0, 0.5, 1, and 2 hours after the morning dose on the last treatment day.
(§2) Plasma Handling and Analytical Assays Plasma samples were separated immediately by centrifugation at 2,000 g for 10 minutes and stored at −20° C. until assaying (VCD is stable at −20° C.). The VCD plasma samples were analyzed by a gas chromatograph (HP 5890 series II)-mass spectrometer (HP 5989A)-GC-MS data system equipped with chiral capillary column. The mass spectrometer was operated in E1 mode at 70eV, the source temperature of the MS was maintained at 200° C. and the quadruple at 100° C. Mass units and their relative abundance were calibrated with perfluorotributylamine (PFTBA). Spectra were collected in the range of […], and the chiral analysis started 18 minutes after injection. Gas chromatograph (GC) oven temperature programming conditions were as follows: 50° C. for 1 minute, then increasing at a rate of 8° C./minute until 100° C., holding for a minute then 4° C./minute until reaching a final temperature of 250° C. The injector temperature is 240° C. and the GC-MS transfer line temperature is 250° C. Inlet pressure is 5 psi with a linear flow rate 20 cm/second. Helium was used as the carrier gas. Chromatographic resolution of the VCD stereoisomers was accomplished by a direct separation on a chiral stationary phase (CSP) column. The CSP consisted of a Chirasil-γ-Dex (octakis (3-O-butanoyl-2,6-di-o-pentyl)-γ-cyclodextrin chemically linked via a 6-mono-octamethylene spacer to a dimethylpolysiloxane. The 0.25 μm Chirasil-γ-Dex was coated on a 25 m×250 μm (id) fused silica capillary column. This CSP of a cyclodextin derivative allows complete baseline resolution of the four stereoisomers (α=1.04, Rs=2.0-2.4) in 24 minutes as depicted in FIG. 2. Intra and inter-day variability in the retention times of the four VCD stereoisomers was less than 10%. A calibration curve was established by spiking drug-free plasma samples with known amounts of racemic VCD at a concentration range of 0.2 mg/L to 8 mg/L (or 0.05 mg/L to 2 mg/L of each of the four VCD stereoisomers).
(§3) Pharmacokinetic and Statistical Analysis Pharmacokinetic parameters were calculated by noncompartmental analysis according to statistical moment theory. Peak plasma concentrations (Cmax) and peak times (tmax) were derived directly from the measured values. The linear terminal slopes (λ) of the log-concentration of each VCD stereoisomer versus time curves were calculated by the peeling procedure. Half life (t½) values were calculated as 0.693/λ. Areas under the plasma concentration versus time curve (AUC), after single dosing, were calculated by the trapezoidal rule with extrapolation to infinity by dividing the last measured concentration by the terminal slope. During repeated administration AUC was calculated over the last two dosing intervals by using the trapezoidal rule. Mean residence time (MRT) was calculated after single dosing as AUMC/AUC, in which AUMC is the area under the concentration×time product versus time curve from zero to infinity. Following single dosing, oral clearance (CL/F, in which F is the oral availability) and apparent volume of distribution at steady state (Vss/F) were calculated as Dose/AUC and as MRT×CL/F, respectively. […]

[2] = Pharmacokinetics of VCD stereoisomers in plasma after single oral dose of racemic valnoctamide to healthy subjects
Description: Healthy Subjects Seven healthy male volunteers, aged 20-31 years, weighing 61 to 85 kg, received 2×200 mg valnoctamide tablets (Nirvanil@) at 08:00 hours after an overnight fast. Venous blood samples were taken through an indwelling catheter 0, 0.5, 1, 2, 3, 4, 5, 6, 8, 10, 12 and 24 hours after dosing. Food was witheld for 4 hours after dosing.
as §2
Pharmacokinetic and Statistical Analysis Pharmacokinetic parameters were calculated by noncompartmental analysis according to statistical moment theory. Peak plasma concentrations (Cmax) and peak times (tmax) were derived directly from the measured values. The linear terminal slopes (λ) of the log-concentration of each VCD stereoisomer versus time curves were calculated by the peeling procedure. Half life (t½) values were calculated as 0.693/λ. Areas under the plasma concentration versus time curve (AUC), after single dosing, were calculated by the trapezoidal rule with extrapolation to infinity by dividing the last measured concentration by the terminal slope. During repeated administration AUC was calculated over the last two dosing intervals by using the trapezoidal rule. Mean residence time (MRT) was calculated after single dosing as AUMC/AUC, in which AUMC is the area under the concentration×time product versus time curve from zero to infinity. Following single dosing, oral clearance (CL/F, in which F is the oral availability) and apparent volume of distribution at steady state (Vss/F) were calculated as Dose/AUC and as MRT×CL/F, respectively. Following repeated dosing, CL/F was calculated from the quotient of the dose (200 mg) and the AUC obtained during one dosing interval (defined as one-half of the AUC calculated over two consecutive dosing intervals). Comparison of the pharmacokinetic parameters of all four VCD stereoisomers was made by ANOVA.

[3] = Pharmacokinetics of VCD stereoisomers in plasma after single oral dose of racemic valnoctamide to epileptic patients; conditions: for CL/F / Cmax / MRT / tmax / t½: single oral 400 mg racemic VCD; for half lives: epileptic patients
Description: as §1, §2, §3

[4] = Mean ± SD of six epileptic patients
[5] = individual epileptic patients, last dosing interval
[6] = Mean ± SD of seven healthy subjects, single oral 400 mg racemic VCD
[7] = individual healthy subjects, single oral 400 mg racemic VCD
[8] = individual healthy subjects, single oral 400 mg racemic VCD (Nirvanil), stereoisomer in plasma
[9] = individual epileptic patients on carbamazepine

SMILES	CL/F [1, 4] [L/h]	Cmax [1, 4] [mg/L]	tmax [1, 4] [h]	t½ [1, 4] [h]	CL/F ([1]; individual epileptic patients)	Cmax ([1]; individual epileptic patients)	tmax ([1]; individual epileptic patients)	t½ [1, 5]	CL/F [2, 6] [L/h]	Cmax [2, 6] [mg/L]	MRT [2, 6] [h]	tmax [2, 6] [h]	t½ [2, 6] [h]	CL/F [2, 7]	Cmax [2, 7]	MRT [2, 7]	tmax [2, 7]	t½ [2, 8]	CL/F [3, 4] [L/h]	Cmax [3, 4] [mg/L]	other results
CCC(C)C(CC)C(N)=O (single isomer, unassigned; stereoisomer a) [Stereoisomer A]	21 ± 4	0.9 ± 0.2	1.5 ± 0.3	2.8 ± 0.7	23 L/h and 19 L/h (3×) and 20 L/h and 29 L/h	0.9 mg/L and 1.1 mg/L and 0.72 mg/L and 0.86 mg/L and 0.8 mg/L and 1.2 mg/L	2.0 h and 1.5 h (3×) and 1.0 h and 1.75 h	2.2 h and 2.7 h and 3.8 h (2×) and 2.4 h and 4.8 h	4.2 ± 0.6	1.7 ± 0.2	15 ± 3	0.7 ± 0.3	10.2 ± 2.1	3.6 L/h and 4.5 L/h and 4.1 L/h and 3.7 L/h and 4.6 L/h and 4.2 L/h and 3.5 L/h	2.0 mg/L and 1.5 mg/L (2×) and 1.8 mg/L (3×) and 1.7 mg/L	13 h (2×) and 20 h and 12 h (2×) and 15 h and 18 h	1 h (3×) and 0.5 h (4×)	8.8 h and 13.6 h and 8.1 h and 10.7 h and 9.5 h and 8.5 h and 12.5 h	32 ± 7	0.78 ± 0.10	t½ ([2]; Mean ± SD of seven healthy subjects, single oral 400 mg racemic VCD, listed as A): approximately 10 h; MRT [3, 4]: 5.4 ± 1.5 h; tmax [3, 4]: 0.8 ± 0.5 h; t½ [3, 4]: 4.1 ± 2.1 h; half lives [3]: about 3 h; CL/F [3, 9]: 40 L/h and 27 L/h and 35 L/h (2×) and 32 L/h and 20 L/h; Cmax [3, 9]: 0.71 mg/L (2×) and 0.94 mg/L and 0.82 mg/L and 0.88 mg/L and 0.67 mg/L; MRT [3, 9]: 4.4 h and 5.1 h (2×) and 4.3 h and 5.3 h and 8.3 h; tmax [3, 9]: 1.5 h (2×) and 0.5 h (4×); t½ [3, 9]: 2.8 h and 3.6 h (2×) and 2.5 h and 8.3 h and 3.8 h
CCC(C)C(CC)C(N)=O (single isomer, unassigned; stereoisomer d) [Stereoisomer D]	29 ± 6	0.6 ± 0.1	1.4 ± 0.3	3.2 ± 1.4	36 L/h and 25 L/h (3×) and 38 L/h and 24 L/h	0.7 mg/L and 0.8 mg/L and 0.6 mg/L (3×) and 0.5 mg/L	2.0 h and 1.5 h (3×) and 1.0 h and 1.25 h	2.1 h and 2.8 h and 5.2 h and 2.5 h and 5.3 h and 4.6 h	4.6 ± 0.7	1.5 ± 0.2	15 ± 3	0.7 ± 0.3	10 ± 2	4.3 L/h and 5.6 L/h and 4.8 L/h and 3.8 L/h and 5.4 L/h and 4.7 L/h and 4.1 L/h	1.5 mg/L (3×) and 1.3 mg/L and 1.6 mg/L and 1.4 mg/L and 1.8 mg/L	13 h (2×) and 18 h (2×) and 12 h (2×) and 19 h	1 h (3×) and 0.5 h (4×)	8.7 h and 12.9 h and 8.0 h and 13.0 h and 9.5 h and 7.9 h and 13 h	46 ± 11	0.61 ± 0.11	t½ ([2]; Mean ± SD of seven healthy subjects, single oral 400 mg racemic VCD, listed as D): approximately 10 h; MRT [3, 4]: 4.7 ± 1.0 h; tmax [3, 4]: 0.83 ± 0.51 h; t½ [3, 4]: 3.3 ± 1.1 h; half lives [3]: about 3 h; CL/F [3, 9]: 60 L/h and 35 L/h and 45 L/h and 42 L/h (2×) and 30 L/h; Cmax [3, 9]: 0.51 mg/L (3×) and 0.72 mg/L (2×) and 0.69 mg/L; MRT [3, 9]: 3.3 h and 5.2 h and 4.5 h and 5.6 h and 5.4 h and 5.3 h; tmax [3, 9]: 1.5 h (2×) and 0.5 h (4×); t½ [3, 9]: 1.2 h and 3.8 h (3×) and 2.7 h and 3.9 h
